In patent US11883422B2, “Glycan therapeutic compositions and related methods thereof” (DSM Nutritional Products, LLC, priority 2015, dated 2024):

System: colonic propulsion in morphine-treated mice
Assay: Mouse model of opioid-induced constipation: colonic propulsion (bead expulsion) after morphine
Type: in vivo
Procedure: This study was conducted to analyze the effects of glycan therapeutics in a mouse model of opioid-induced constipation. In this model, normal mice are dosed with glycan or control for several days and then administered a dose of morphine sufficient to produce decreased gastrointestinal (GI) transit and colonic propulsion (Coates et al. 2006 Neurogastroenterol Motil 18:464-471). In humans, morphine and related opiate drugs are known to cause constipation. They act on neurons in the myenteric plexus as mu-opioid receptor agonists, leading to decreased GI motility and propulsion. The proportion of the US adult population who take opiates chronically (non-cancer patients), is roughly 4%. In an observational study of patients on opiates for chronic pain, 47% experienced constipation (Tuteja et al. […] Neurogastroenterol Motil 22: 424-430). There is evidence that chronic constipation can predispose individuals to benign GI neoplasms and colorectal cancer. […]
Several drug toxicities affecting GI motility (e.g. causing constipation or diarrhea) in cancer are also related to or associated with other immune imbalances and nutritional imbalances. […] Colonic propulsion was assessed as follows: thirty minutes post morphine dosing, a 3 mm glass bead was inserted at a depth of 2 cm into the distal colon through each mouse's anus. […]

C=CCN1CC[C@]23c4c5ccc(O)c4O[C@H]2C(=O)CC[C@@]3(O)[C@H]1C5 [naloxone]
responders (reduction in expulsion of >25% of maximum expulsion time, 1350 seconds) (1% in drinking water for 11 days (naloxone 30 minutes prior to morphine), morphine 3 mg/kg subcutaneously): 6/8 | effect in this mouse model of colonic propulsion (third analysis, responder versus non-responder animals, cutoff 1800 seconds): reversing the effects of morphine
